Patent US10168342B2, “Lipid probes and uses thereof” (THE SCRIPPS RESEARCH INSTITUTE, priority 2015, dated 2019)
Where two headings read alike, the source gives them in different places.

Experiments:
[1] = molecular target: T1, AEA-DA lipid probe targets in Neuro2a cells (Mus musculus, UniProt Q02819)
T1 sequence (Q02819 26-459): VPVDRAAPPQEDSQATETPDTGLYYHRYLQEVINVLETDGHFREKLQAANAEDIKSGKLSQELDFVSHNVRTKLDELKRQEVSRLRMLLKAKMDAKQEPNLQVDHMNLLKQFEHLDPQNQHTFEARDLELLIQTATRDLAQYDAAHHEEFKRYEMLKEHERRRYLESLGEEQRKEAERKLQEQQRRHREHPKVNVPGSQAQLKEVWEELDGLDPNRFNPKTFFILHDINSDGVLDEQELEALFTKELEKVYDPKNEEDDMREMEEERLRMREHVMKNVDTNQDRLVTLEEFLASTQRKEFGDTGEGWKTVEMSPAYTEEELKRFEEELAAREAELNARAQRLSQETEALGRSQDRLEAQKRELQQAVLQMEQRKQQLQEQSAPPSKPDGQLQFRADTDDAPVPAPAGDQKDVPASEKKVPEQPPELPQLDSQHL

[2] = molecular target: AEA-DA lipid probe targets in Neuro2a cells (Mus musculus, UniProt Q91V04)
AEA-DA lipid probe targets in Neuro2a cells (Mus musculus, UniProt Q91V04), sequence (Q91V04 whole entry): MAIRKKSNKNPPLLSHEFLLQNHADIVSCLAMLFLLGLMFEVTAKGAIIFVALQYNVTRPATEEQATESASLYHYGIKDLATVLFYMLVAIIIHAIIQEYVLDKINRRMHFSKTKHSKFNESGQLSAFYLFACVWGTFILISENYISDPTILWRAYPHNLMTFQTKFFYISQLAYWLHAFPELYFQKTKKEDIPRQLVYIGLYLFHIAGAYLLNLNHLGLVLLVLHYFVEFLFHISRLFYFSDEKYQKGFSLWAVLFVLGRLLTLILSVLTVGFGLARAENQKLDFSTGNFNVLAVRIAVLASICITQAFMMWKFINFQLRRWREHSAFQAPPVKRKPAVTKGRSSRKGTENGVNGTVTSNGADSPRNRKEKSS

[3] = molecular target: T2, AEA-DA lipid probe targets in Neuro2a cells (Mus musculus, UniProt Q60692)
T2 sequence (Q60692 1-238): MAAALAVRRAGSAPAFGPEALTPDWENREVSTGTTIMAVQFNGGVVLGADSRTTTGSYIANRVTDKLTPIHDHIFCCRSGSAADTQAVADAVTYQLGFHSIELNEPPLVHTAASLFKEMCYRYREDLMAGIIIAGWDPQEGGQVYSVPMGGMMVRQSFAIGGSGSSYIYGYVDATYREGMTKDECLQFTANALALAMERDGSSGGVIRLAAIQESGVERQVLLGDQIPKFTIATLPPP

[4] = molecular target: T3, AEA-DA lipid probe targets in Neuro2a cells (Mus musculus, UniProt Q8K0C4)
T3 sequence (Q8K0C4 1-503): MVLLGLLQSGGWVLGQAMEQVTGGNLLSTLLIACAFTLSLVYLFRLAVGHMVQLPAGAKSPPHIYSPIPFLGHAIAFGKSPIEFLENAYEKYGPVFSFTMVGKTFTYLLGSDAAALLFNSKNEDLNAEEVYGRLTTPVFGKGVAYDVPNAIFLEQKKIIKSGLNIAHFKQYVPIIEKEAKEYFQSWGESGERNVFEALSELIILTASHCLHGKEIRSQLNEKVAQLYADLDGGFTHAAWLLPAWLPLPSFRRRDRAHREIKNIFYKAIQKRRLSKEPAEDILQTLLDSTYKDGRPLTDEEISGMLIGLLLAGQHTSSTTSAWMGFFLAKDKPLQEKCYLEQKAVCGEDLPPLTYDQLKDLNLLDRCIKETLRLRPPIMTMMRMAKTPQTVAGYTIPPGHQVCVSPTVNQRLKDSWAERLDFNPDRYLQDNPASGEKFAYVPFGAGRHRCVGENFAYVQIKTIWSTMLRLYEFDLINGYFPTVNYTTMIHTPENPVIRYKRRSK

[5] = molecular target: T4, AEA-DA lipid probe targets in Neuro2a cells (Mus musculus, UniProt Q3KNM2); settings: for SILAC ratio, MARCH5 (Q3KNM2): Neuro2a cells, AEA-DA probe
T4 sequence (Q3KNM2 1-278): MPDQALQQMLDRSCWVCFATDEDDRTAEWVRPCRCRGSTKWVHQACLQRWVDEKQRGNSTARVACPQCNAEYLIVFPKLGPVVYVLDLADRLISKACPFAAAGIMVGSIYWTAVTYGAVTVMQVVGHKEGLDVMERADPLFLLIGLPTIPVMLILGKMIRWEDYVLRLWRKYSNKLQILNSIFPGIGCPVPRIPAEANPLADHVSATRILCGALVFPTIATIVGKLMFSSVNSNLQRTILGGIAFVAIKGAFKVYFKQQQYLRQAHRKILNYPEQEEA

[6] = molecular target: T5, AEA-DA lipid probe targets in Neuro2a cells (Mus musculus, UniProt Q9CPQ8)
T5 sequence (Q9CPQ8 1-103): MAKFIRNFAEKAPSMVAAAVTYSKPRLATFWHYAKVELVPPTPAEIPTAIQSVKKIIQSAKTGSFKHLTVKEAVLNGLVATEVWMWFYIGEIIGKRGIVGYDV

[7] = molecular target: T6, AEA-DA lipid probe targets in Neuro2a cells (Mus musculus, UniProt Q9D1D4)
T6 sequence (Q9D1D4 32-219): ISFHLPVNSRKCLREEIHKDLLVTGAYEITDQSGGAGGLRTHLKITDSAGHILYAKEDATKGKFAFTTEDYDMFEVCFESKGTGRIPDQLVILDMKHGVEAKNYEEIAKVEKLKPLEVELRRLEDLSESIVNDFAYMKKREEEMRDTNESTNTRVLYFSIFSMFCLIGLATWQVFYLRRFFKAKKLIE

## O=C(/C=C/c1cccnc1)NCCCCC1CCN(C(=O)c2ccccc2)CC1 [FK-866, reference compound]
[1]; FIG. 16I and Table 4
  interaction with NUCB1 protein: did not interact
[1]; competitor 25 μM
  SILAC ratio, Nucb1: 1.2
[2]; competitor 25 μM
  SILAC ratio, Tram1: 1.2
[3]; competitor 25 μM
  SILAC ratio Psmb6: 1.4
[4]; competitor 25 μM
  SILAC ratio Cyp51a1: 1.5
[5]; competitor 25 μM
  SILAC ratio, MARCH5 (Q3KNM2): 1.3
  SILAC ratio, March5: 1.3
[6]; competitor 25 μM
  SILAC ratio Atp5l: 1.1
[7]; competitor 25 μM
  SILAC ratio, Tmed10: 1.1

## CCCCC/C=C\C/C=C\C/C=C\C/C=C\CCCC(=O)NCCO [AEA, anandamide, reference compound]
[1]; competitor 200 μM
  SILAC ratio, Nucb1: 1.5
[2]; competitor 200 μM
  SILAC ratio, Tram1: 2.9
[3]; competitor 200 μM
  SILAC ratio Psmb6: 1.4
[4]; competitor 200 μM
  SILAC ratio Cyp51a1: 1.8
[6]; competitor 200 μM
  SILAC ratio Atp5l: 1.3
[7]; competitor 200 μM
  SILAC ratio, Tmed10: 1.5

## CN1CCN(C(=O)c2c(-c3ccccc3)c3cc([N+](=O)[O-])ccc3n2C)CC1 [KML110, (1-Methyl-5-nitro-3-phenyl-1H-indol-2-yl)(4-methylpiperazin-1-yl)methanone]
[1]; competitor 25 μM
  SILAC ratio, Nucb1: 3.4
[2]; competitor 25 μM
  SILAC ratio, Tram1: 1.7
[3]; competitor 25 μM
  SILAC ratio Psmb6: 1.9
[4]; competitor 25 μM
  SILAC ratio Cyp51a1: 1.2
[5]; competitor 25 μM
  SILAC ratio, March5: 1.5
[6]; competitor 25 μM
  SILAC ratio Atp5l: 1.2
[7]; competitor 25 μM
  SILAC ratio, Tmed10: 1.2

## C=CCN(C)CCCCCCOc1ccc(C(=O)c2ccc(Br)cc2)c(F)c1 [Ro 48-8071, reference compound]
[1]; competitor 25 μM
  SILAC ratio, Nucb1: 0.9
[2]; competitor 25 μM
  SILAC ratio, Tram1: 1.8
[3]; competitor 25 μM
  SILAC ratio Psmb6: 1.0
[4]; competitor 25 μM
  SILAC ratio Cyp51a1: 1.3
[5]; competitor 25 μM
  SILAC ratio, MARCH5 (Q3KNM2): 1.1
  SILAC ratio, March5: 1.1
[6]; competitor 25 μM
  SILAC ratio Atp5l: 1.0
[7]; competitor 25 μM
  SILAC ratio, Tmed10: 1.0

## CN1CCN(C(=O)c2[nH]c3ccc([N+](=O)[O-])cc3c2-c2ccccc2)CC1 [MJN228, (4-Methylpiperazin-1-yl)(5-nitro-3-phenyl-1H-indol-2-yl)methanone]
[1]; Neuro2a cells, AEA-DA 5 μM
  concentration at which lipid probe binding to NUCB1 is inhibited (as low as): 10 µM
  concentration of near-maximal inhibition of lipid probe binding to NUCB1: ~25 µM
[1]; competitor 10 μM
  SILAC ratio, Nucb1: 3.1
[1]; competitor 25 μM
  SILAC ratio, Nucb1: 4.7
[1]; competitor 50 μM
  SILAC ratio, Nucb1: 5.6
[1]; competitor 100 μM
  SILAC ratio, Nucb1: 6.2
[2]; competitor 10 μM
  SILAC ratio, Tram1: 1.3
[2]; competitor 25 μM
  SILAC ratio, Tram1: 1.8
[2]; competitor 50 μM
  SILAC ratio, Tram1: 1.9
[2]; competitor 100 μM
  SILAC ratio, Tram1: 5.4
[3]; competitor 10 μM
  SILAC ratio Psmb6: 1.3
[3]; competitor 25 μM
  SILAC ratio Psmb6: 1.5
[3]; competitor 50 μM
  SILAC ratio Psmb6: 1.4
[3]; competitor 100 μM
  SILAC ratio Psmb6: 2.5
[4]; competitor 10 μM
  SILAC ratio Cyp51a1: 1.5
[4]; competitor 25 μM
  SILAC ratio Cyp51a1: 2.2
[4]; competitor 50 μM
  SILAC ratio Cyp51a1: 2.3
[4]; competitor 100 μM
  SILAC ratio Cyp51a1: 3.1
[5]; competitor 25 μM
  SILAC ratio, MARCH5 (Q3KNM2): 1.1
  SILAC ratio, March5: 1.1
[5]; competitor 10 μM
  SILAC ratio, March5: 1.1
[5]; competitor 50 μM
  SILAC ratio, March5: 1.0
[5]; competitor 100 μM
  SILAC ratio, March5: 1.1
[6]; competitor 10 μM
  SILAC ratio Atp5l: 1.5
[6]; competitor 25 μM
  SILAC ratio Atp5l: 1.5
[6]; competitor 50 μM
  SILAC ratio Atp5l: 1.4
[6]; competitor 100 μM
  SILAC ratio Atp5l: 1.3
[7]; competitor 10 μM
  SILAC ratio, Tmed10: 1.1
[7]; competitor 25 μM
  SILAC ratio, Tmed10: 1.4
[7]; competitor 50 μM
  SILAC ratio, Tmed10: 1.5
[7]; competitor 100 μM
  SILAC ratio, Tmed10: 1.6
